ChEMBL document CHEMBL3881521, “Alpha-9 integrin antagonists and anti-inflammatory compositions therof” (2003)
Calls of active or inactive are those of the source. The rule behind the calls is not given here. *1 amine or outer side, *2 acyl side, *3 side chain or, on linkers, in order; H or OH if unused. Where a SMILES comes first, the peptide text is derived from it. Side-chain parts run from the residue outwards. [ ]: non-standard residue; d: D form. The star is where a group is joined. Tos = Cc1ccc(S(=O)(=O)*)cc1; NMeA = CN[C@@H](C)C(=O)O; CO = O=C([*:1])[*:2]; Sar = CNCC(=O)O

Assays:
Format in all cases: cell-based
SW480 [1] = assay: Selectivity for integrin alpha9beta1 (unknown origin) expressed in SW480 cells over integrin alpha4beta7 (unknown origin); conditions: Homo sapiens
[2] = target: ITGB1-ITGA9 complex (Homo sapiens) (UniProt P05556+Q13797); assay: Antagonist activity against integrin alpha9beta1 (unknown origin) expressed in SW480 cells assessed as inhibition of integrin alpha9-dependent cell adhesion to tenascin by binding saturation assay
SW480 [3] = assay: Selectivity for integrin alpha9beta1 (unknown origin) expressed in SW480 cells over integrin alpha5beta1 (unknown origin); conditions: Homo sapiens
[4] = target: Integrin alpha-4/beta-1 (Homo sapiens) (UniProt P05556+P13612); assay: Inhibition of C-terminal human lgG1 heavy chain constant region tagged recombinant soluble VCAM-1 binding to integrin alpha4beta1 in human Jurkat cells incubated for 30 mins by FACS based 15/7 antibody assay

| Compound | Selectivity ratio (SW480 [1]) | inhibition [2] | Selectivity ratio (SW480 [3]) | inhibition [4] |
| --- | --- | --- | --- | --- |
| CN(C)C(=O)Oc1ccc(C[C@H](NC(=O)[C@@H]2CCCN2S(=O)(=O)c2cnn(C)c2)C(=O)O)cc1 | 100 | Active | 100 | Active |
| Cc1ccc(S(=O)(=O)N2CCC[C@H]2C(=O)N[C@@H](Cc2ccc(OC(=O)N3CCNCC3)cc2)C(=O)O)cc1 | 100 | Active | 100 | Active |
| Cc1ccc(S(=O)(=O)N2CCS(=O)(=O)C[C@@H]2C(=O)N[C@@H](Cc2ccc(OC(=O)N(C)C)cc2)C(=O)O)cc1 | 100 | Active | 100 | Active |
| Cc1ccc(S(=O)(=O)N2CCC[C@H]2C(=O)N[C@@H](Cc2ccc(OC(=O)N3CCN(C)CC3)cc2)C(=O)O)cc1 | 100 | Active | 100 | Active |
| Cc1ccc(S(=O)(=O)N(C)[C@@H](C)C(=O)N[C@@H](Cc2ccc(OC(=O)N(C)C)cc2)C(=O)O)cc1 (Tos-[NMeA]-Tyr([CO-NMe2])-OH) | 100 | Active | 100 | Active |
| Cc1ccc(S(=O)(=O)N2CS(=O)(=O)C(C)(C)[C@@H]2C(=O)N[C@@H](Cc2ccc(OC(=O)N(C)C)cc2)C(=O)O)cc1 | 100 | Active | 100 | Active |
| Cc1ccc(S(=O)(=O)N(C)CC(=O)N[C@@H](Cc2ccc(OC(=O)N(C)C)cc2)C(=O)O)cc1 (Tos-[Sar]-Tyr([CO-NMe2])-OH) | 100 | Active | 100 | Active |
| Cc1ccc(S(=O)(=O)N2CS(=O)(=O)C(C)(C)[C@@H]2C(=O)N[C@@H](Cc2ccc(OCCCN(C)C)cc2)C(=O)O)cc1 | 100 | Active | 100 | Active |
| Cc1ccc(S(=O)(=O)N2CCC[C@H]2C(=O)N[C@@H](Cc2ccc(OC(=O)N(C)C)cc2)C(=O)O)cc1 (Tos-Pro-Tyr([CO-NMe2])-OH) | 100 | Active | 100 | Active |
